One series deals with T1, human TLR9 (Homo sapiens, UniProt Q9NR96).
T1 sequence (Q9NR96 26-1032): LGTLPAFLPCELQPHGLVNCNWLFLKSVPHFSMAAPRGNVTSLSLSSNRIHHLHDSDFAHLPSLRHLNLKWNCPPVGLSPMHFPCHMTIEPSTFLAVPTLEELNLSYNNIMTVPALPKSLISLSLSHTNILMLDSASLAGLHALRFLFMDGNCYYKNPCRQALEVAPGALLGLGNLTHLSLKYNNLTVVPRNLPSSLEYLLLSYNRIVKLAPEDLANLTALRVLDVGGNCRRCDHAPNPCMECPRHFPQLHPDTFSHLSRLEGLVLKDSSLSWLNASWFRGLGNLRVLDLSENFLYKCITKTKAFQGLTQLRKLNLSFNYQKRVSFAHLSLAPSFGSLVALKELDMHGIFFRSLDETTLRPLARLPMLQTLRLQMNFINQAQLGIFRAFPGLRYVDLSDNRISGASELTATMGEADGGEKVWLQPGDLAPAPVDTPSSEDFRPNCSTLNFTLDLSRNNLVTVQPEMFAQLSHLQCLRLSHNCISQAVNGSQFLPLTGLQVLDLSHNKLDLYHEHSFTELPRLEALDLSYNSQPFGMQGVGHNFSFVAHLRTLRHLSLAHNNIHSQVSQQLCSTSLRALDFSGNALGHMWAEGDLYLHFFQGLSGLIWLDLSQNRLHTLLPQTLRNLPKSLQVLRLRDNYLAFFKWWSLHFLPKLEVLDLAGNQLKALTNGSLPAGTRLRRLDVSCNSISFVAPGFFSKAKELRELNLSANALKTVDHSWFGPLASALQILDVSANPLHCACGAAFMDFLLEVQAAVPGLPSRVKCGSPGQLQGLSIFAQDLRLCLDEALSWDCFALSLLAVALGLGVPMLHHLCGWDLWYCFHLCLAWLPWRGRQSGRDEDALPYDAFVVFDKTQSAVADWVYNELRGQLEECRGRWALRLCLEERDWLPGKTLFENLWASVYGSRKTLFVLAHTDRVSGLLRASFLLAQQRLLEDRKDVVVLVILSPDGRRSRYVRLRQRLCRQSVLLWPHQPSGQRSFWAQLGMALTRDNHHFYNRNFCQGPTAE
Briefly: HEK293-Blue-hTLR-9 cells assay (SEAP reporter, ODN2006 stimulation). Format: cell-based. The note with it: HEK293-Blue-hTLR9 cells, ODN2006, 20 hrs incubation; read-out: HEK/hTLR9 IC50. The protocol: The following tests were carried out in order to determine the activity of the compounds of formula (I), (Ia) or (Ib) in HEK293-Blue-hTLR-7/8/9 cells assay.
HEK293-Blue-hTLR-9 Cells Assay:
A stable HEK293-Blue-hTLR-9 cell line was purchased from InvivoGen (Cat.#: hkb-htlr9, San Diego, Calif., USA). These cells were originally designed for studying the stimulation of human TLR9 by monitoring the activation of NF-κB. A SEAP (secreted embryonic alkaline phosphatase) reporter gene was placed under the control of the IFN-β minimal promoter fused to five NF-κB and AP-1-binding sites. The SEAP was induced by activating NF-κB and AP-1 via stimulating HEK-Blue hTLR9 cells with TLR9 ligands. Therefore the reporter expression was declined by TLR9 antagonist under the stimulation of a ligand, such as ODN2006 (Cat.#: tlrl-2006-1, Invivogen, San Diego, Calif., USA), for incubation of 20 hrs. The cell culture supernatant SEAP reporter activity was determined using QUANTI-Blue™ kit (Cat.#: rep-qb1, Invivogen, San Diego, Calif., USA) at a wavelength of 640 nm, a detection medium that turns purple or blue in the presence of alkaline phosphatase.
HEK293-Blue-hTLR9 cells were incubated at a density of 250,000-450,000 cells/mL in a volume of 170 μL in a 96-well plate in Dulbecco's Modified Eagle's medium (DMEM) containing 4.5 g/L glucose, 50 U/mL penicillin, […], 2 mM L-glutamine, 10% (v/v) heat-inactivated fetal bovine serum with addition of 20 μL test compound in a serial dilution in the presence of final DMSO at 1% and 10 μL of 20 uM ODN2006 in above DMEM, perform incubation under 37° C. in a CO2 incubator for 20 hrs. Then 20 μL of the supernatant from each well was incubated with 180 μL Quanti-blue substrate solution at 37° C. for 2 h and the absorbance was read at 620-655 nm using a spectrophotometer. The signaling pathway that TLR9 activation leads to downstream NF-κB activation has been widely accepted, and therefore similar reporter assay was modified for evaluating TLR9 antagonist.

Series [1] can be described thus: Human microsomal stability assay. The format is in vitro ADME. The note with it: human liver microsomes, 1 μM test compound, 0.5 mg/mL protein, 37° C.; low <7.0, medium 7.0-16.2, high 16.2-23.2 mL/min/kg. How it is done: Human Microsomal Stability Assay
Human liver microsomes (Cat.NO.: 452117, Corning, USA) were preincubated with test compound for 10 minutes at 37° C. in 100 mM potassium phosphate buffer, pH 7.4. The reactions were initiated by adding NADPH regenerating system. The final incubation mixtures contained 1 μM test compound, 0.5 mg/mL liver microsomal protein, 1 mM MgCl2, 1 mM NADP, 1 unit/mL isocitric dehydrogenase and 6 mM isocitric acid in 100 mM potassium phosphate buffer, pH 7.4. After incubation times of 0, 3, 6, 9, 15 and 30 minutes at 37° C., 300 μL of cold ACN (including internal standard) was added to 100 μL incubation mixture to terminate the reaction. Following precipitation and centrifugation, 100 uL supernatant will be taken out and added 300 uL water. The amount of compound remaining in the samples was determined by LC-MS/MS. Controls of no NADPH regenerating system at zero and 30 minutes were also prepared and analyzed. The results were categorized as: low (<7.0 mL/min/kg), medium (7.0-16.2 mL/min/kg) and high (16.2-23.2 mL/min/kg).
A general note: Liver microsomes are vesicles of endoplasmic reticulum, rich in cytochrome P450 enzymes.

From patent US20230002375A1, “HYDROPYRAZINO[1,2-B]ISOQUINOLINE COMPOUNDS FOR THE TREATMENT OF AUTOIMMUNE DISEASE” (Hoffmann-La Roche Inc., priority 2019, published 2023) come the findings set out here.

SMILES strings stand for the structures.

Consider `C[C@@H]1CN(c2ccc(C#N)c3ncccc23)C[C@@H]2Cc3cc(OCCN(C)C)ccc3CN21` [Example 11, 5-[(4R,11aS)-9-[2-(dimethylamino)ethoxy]-4-methyl-1,3,4,6,11,11a-hexahydropyrazino[1,2-b]isoquinolin-2-yl]quinoline-8-carbonitrile], for which the IC50 on human TLR9 was 81 nM.
The same measure, in the same setting: in the case of `C[C@@H]1CN(c2ccc(C#N)c3ncccc23)C[C@@H]2Cc3ccc(N4CCOCC(N)C4)cc3CN21` (stereo partly drawn) [Example 1, 5-[(4R,11aS)-8-(6-amino-1,4-oxazepan-4-yl)-4-methyl-1,3,4,6,11,11a-hexahydropyrazino[1,2-b]isoquinolin-2-yl]quinoline-8-carbonitrile] it was 64.6 nM.
For `C[C@@H]1CN(c2ccc(C#N)c3ncccc23)C[C@@H]2Cc3cc(N4CCN(C(=O)[C@]5(C)CCCN5)CC4)ccc3CN21` [Example 14, 5-[(4R,11aS)-4-methyl-9-[4-[(2S)-2-methylpyrrolidine-2-carbonyl]piperazin-1-yl]-1,3,4,6,11,11a-hexahydropyrazino[1,2-b]isoquinolin-2-yl]quinoline-8-carbonitrile], the IC50 on human TLR9 amounted to 254 nM. Further, the “CL(h)” value in series [1] was 8.7 mL/min/kg.
In the same order, the values of `C[C@@H]1CN(c2ccc(C#N)c3ncccc23)C[C@@H]2Cc3cc(N4CC(N)CC4=O)ccc3CN21` (stereo partly drawn) [Example 16, 5-[(4R,11aS)-9-(4-amino-2-oxo-pyrrolidin-1-yl)-4-methyl-1,3,4,6,11,11a-hexahydropyrazino[1,2-b]isoquinolin-2-yl]quinoline-8-carbonitrile] are 125 nM and 6.8 mL/min/kg.
In the same order, the values of `C[C@@H]1CN(c2ccc(C#N)c3ncccc23)C[C@@H]2Cc3cc(N4CCN(C(=O)C(C)(C)N)CC4)ccc3CN21` [Example 13, 5-[(4R,11aS)-9-[4-(2-amino-2-methyl-propanoyl)piperazin-1-yl]-4-methyl-1,3,4,6,11,11a-hexahydropyrazino[1,2-b]isoquinolin-2-yl]quinoline-8-carbonitrile] are 85.6 nM and 7.6 mL/min/kg.
In the case of `C[C@@H]1CN(c2ccc(C#N)c3ncccc23)C[C@@H]2Cc3ccc(OCCN(C)C)cc3CN21` [Example 5, 5-[(4R,11aS)-8-[2-(dimethylamino)ethoxy]-4-methyl-1,3,4,6,11,11a-hexahydropyrazino[1,2-b]isoquinolin-2-yl]quinoline-8-carbonitrile], the IC50 on human TLR9 is 96.3 nM.
As for `C[C@@H]1CN(c2ccc(C#N)c3ncccc23)C[C@@H]2Cc3cc(N4C[C@@H](F)[C@@H](N)C4)ccc3CN21` [Example 8, 5-[(4R,11aS)-9-[(3S,4R)-3-amino-4-fluoro-pyrrolidin-1-yl]-4-methyl-1,3,4,6,11,11a-hexahydropyrazino[1,2-b]isoquinolin-2-yl]quinoline-8-carbonitrile], the IC50 on human TLR9 came out at 85.3 nM. Besides, the “CL(h)” value in series [1] turned out to be 9.6 mL/min/kg.
As for `C[C@@H]1CN(c2ccc(C#N)c3ncccc23)C[C@@H]2Cc3cc(N4C[C@@H]5C[C@H]4CN5C(=O)C(C)(C)N)ccc3CN21` [Example 15, 5-[(4R,11aS)-9-[(1S,4S)-5-(2-amino-2-methyl-propanoyl)-2,5-diazabicyclo[2.2.1]heptan-2-yl]-4-methyl-1,3,4,6,11,11a-hexahydropyrazino[1,2-b]isoquinolin-2-yl]quinoline-8-carbonitrile], on human TLR9, the IC50 turned out to be 125 nM.
The same measure, in the same setting: as for `C[C@@H]1CN(c2ccc(C#N)c3ncccc23)C[C@@H]2Cc3cc(N4C[C@@H]5CNCCN5C4=O)ccc3CN21` (single isomer, unassigned) [Example 17A], the figure is 107 nM; as for `C[C@@H]1CN(c2ccc(C#N)c3ncccc23)C[C@@H]2Cc3cc(N4CC5CNCCC5C4=O)ccc3CN21` (stereo partly drawn) [Example 19, 5-[(4R,11aS)-4-methyl-9-(1-oxo-3a,4,5,6,7,7a-hexahydro-3H-pyrrolo[3,4-c]pyridin-2-yl)-1,3,4,6,11,11a-hexahydropyrazino[1,2-b]isoquinolin-2-yl]quinoline-8-carbonitrile], 44.5 nM.
Still for that read-out and setting: in the case of `C[C@@H]1CN(c2ccc(C#N)c3ncccc23)C[C@@H]2Cc3cc(N4CC5CCNCC5C4=O)ccc3CN21` (stereo partly drawn) [Example 18, 5-[(4R,11aS)-4-methyl-9-(3-oxo-3a,4,5,6,7,7a-hexahydro-1H-pyrrolo[3,4-c]pyridin-2-yl)-1,3,4,6,11,11a-hexahydropyrazino[1,2-b]isoquinolin-2-yl]quinoline-8-carbonitrile] it was 64.6 nM.
Consider `C[C@@H]1CN(c2ccc(C#N)c3ncccc23)C[C@@H]2Cc3cc(N[C@@H]4CNC[C@@H]4F)ccc3CN21` [Example 6, 5-[(4R,11aS)-4-methyl-9-[[(3R,4S)-4-fluoropyrrolidin-3-yl]amino]-1,3,4,6,11,11a-hexahydropyrazino[1,2-b]isoquinolin-2-yl]quinoline-8-carbonitrile], for which the IC50 at human TLR9 was found to be 106 nM. In addition, the “CL(h)” value in series [1] was 6.8 mL/min/kg.
As to `CO[C@H]1CNC[C@H]1Nc1ccc2c(c1)C[C@H]1CN(c3ccc(C#N)c4ncccc34)C[C@@H](C)N1C2` [Example 7, 5-[(4R,11aS)-9-[[(3R,4S)-4-methoxypyrrolidin-3-yl]amino]-4-methyl-1,3,4,6,11,11a-hexahydropyrazino[1,2-b]isoquinolin-2-yl]quinoline-8-carbonitrile], the IC50 on human TLR9 stood at 109 nM.
In the case of `C[C@@H]1CN(c2ccc(C#N)c3ncccc23)C[C@@H]2Cc3ccc(NCCN4CC[C@H](O)C4)cc3CN21` [Example 2, 5-[(4R,11aS)-8-[2-[(3S)-3-hydroxypyrrolidin-1-yl]ethylamino]-4-methyl-1,3,4,6,11,11a-hexahydropyrazino[1,2-b]isoquinolin-2-yl]quinoline-8-carbonitrile], the IC50 at human TLR9 is 44.5 nM.
Still for that read-out and setting: as for `C[C@@H]1CN(c2ccc(C#N)c3ncccc23)C[C@@H]2Cc3cc(N4C[C@H]5CNCCN5C4=O)ccc3CN21` (single isomer, unassigned) [Example 17B], the figure is 106 nM; as for `C[C@@H]1CN(c2ccc(C#N)c3ncccc23)C[C@@H]2Cc3cc(OC[C@@H]4CCN4)ccc3CN21` [Example 12, 5-[(4R,11aS)-9-[[(2S)-azetidin-2-yl]methoxy]-4-methyl-1,3,4,6,11,11a-hexahydropyrazino[1,2-b]isoquinolin-2-yl]quinoline-8-carbonitrile], 116 nM.
